According to ChEMBL document CHEMBL5143597, “Design and synthesis of novel spirocyclic carboxylic acids as potent and orally bioavailable DGAT1 inhibitors and their biological evaluation” (Bioorg Med Chem Lett, 2022):
Each block holds one compound with its values, some of them ahead of it.

Columns and labels:
[1] = molecular target: T1, Diacylglycerol O-acyltransferase 1 (Homo sapiens, UniProt O75907); assay: Inhibition of human DGAT1 in serum starved HEK293 cells assessed as inhibition of triglyceride synthesis incubated for 20 mins followed by 13C-addition of 13C-oleic acid pre-complexed with BSA for 120 mins by LC-MS-based mass spectrophotometric analysis; type: cell-based
T1 sequence (O75907 whole entry): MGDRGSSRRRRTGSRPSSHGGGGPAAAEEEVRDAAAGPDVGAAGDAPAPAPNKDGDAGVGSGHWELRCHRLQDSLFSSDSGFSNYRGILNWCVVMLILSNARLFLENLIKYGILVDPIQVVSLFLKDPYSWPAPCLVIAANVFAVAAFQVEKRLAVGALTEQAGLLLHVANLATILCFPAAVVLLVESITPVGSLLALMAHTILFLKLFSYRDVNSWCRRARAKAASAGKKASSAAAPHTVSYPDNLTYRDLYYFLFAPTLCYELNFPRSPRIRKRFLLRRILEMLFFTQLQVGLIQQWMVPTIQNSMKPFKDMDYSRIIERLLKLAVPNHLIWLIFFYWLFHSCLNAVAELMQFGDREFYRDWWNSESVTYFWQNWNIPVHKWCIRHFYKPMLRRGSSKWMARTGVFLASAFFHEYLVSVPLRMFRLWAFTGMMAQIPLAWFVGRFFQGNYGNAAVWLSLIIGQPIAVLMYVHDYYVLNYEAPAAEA

[2] = Metabolic stability in rat liver microsomes assessed as parent compound remaining at 1 uM and measured at 30 mins by LC-MS/MS analysis; type: ADME, Microsome; conditions: read-out: Stability
[3] = Metabolic stability in mouse liver microsomes assessed as parent compound remaining at 1 uM and measured at 30 mins by LC-MS/MS analysis; type: ADME, Microsome; conditions: read-out: Stability
[4] = Metabolic stability in human liver microsomes assessed as parent compound remaining at 1 uM and measured at 30 mins by LC-MS/MS analysis; type: ADME, Microsome; conditions: read-out: Stability
hERG (KCNH2) = hERG (KCNH2) (Homo sapiens, UniProt Q12809); assay: Displacement of [3H]astemizole from human ERG expressed in HEK293 cell membrane at 30 uM for 2 hrs by Radiometric displacement assay; type: toxicity; conditions: HEK293 cell membranes that express hERG, probe [3H]astemizole
[5] = Plasma protein binding in rat; type: ADME, cell-free; conditions: read-out: PPB
[6] = Plasma protein binding in mouse; type: ADME, cell-free; conditions: read-out: PPB (converted)
[7] = Clearance in C57BL/6 mouse at 3 mg/kg, iv or 10 mg/kg, po and measured up to 24 hrs by LC-MS/MS analysis; type: ADME, organism-based; conditions: in vivo
[8] = Apparent permeability across apical to basolateral side in MDCK cells at 2.5 uM for 90 mins; type: ADME, cell-based, Canis lupus familiaris; conditions: dog
[9] = Volume of distribution at steady state in C57BL/6 mouse at 3 mg/kg, iv or 10 mg/kg, po and measured up to 24 hrs by LC-MS/MS analysis; type: ADME, organism-based; conditions: in vivo, read-out: Vdss
[10] = AUC in C57BL/6 mouse at 3 mg/kg, iv or 10 mg/kg, po and measured up to 24 hrs by LC-MS/MS analysis; type: ADME, organism-based; parameters: time < 24 hrs, dose 3 mg/kg, route iv; conditions: in vivo
[11] = Cmax in C57BL/6 mouse at 3 mg/kg, iv or 10 mg/kg, po and measured up to 24 hrs by LC-MS/MS analysis; type: ADME, organism-based; parameters: dose 3 mg/kg, time < 24 hrs, route iv; conditions: in vivo
[12] = Tmax in C57BL/6 mouse at 3 mg/kg, iv or 10 mg/kg, po and measured up to 24 hrs by LC-MS/MS analysis; type: ADME, organism-based; conditions: in vivo
[13] = Half life in C57BL/6 mouse at 3 mg/kg, iv or 10 mg/kg, po and measured up to 24 hrs by LC-MS/MS analysis; type: ADME, organism-based; conditions: in vivo
[14] = Oral bioavailability in C57BL/6 mouse 10 mg/kg or 3 mg/kg, iv and measured up to 24 hrs by LC-MS/MS analysis; type: ADME, organism-based; conditions: in vivo
[15] = Volume of distribution at steady state in Wistar rat at 3 mg/kg, iv or 10 mg/kg, po and measured up to 24 hrs by LC-MS/MS analysis; type: ADME, organism-based; conditions: in vivo, read-out: Vdss
[16] = Clearance in Wistar rat at 3 mg/kg, iv or 10 mg/kg, po and measured up to 24 hrs by LC-MS/MS analysis; type: ADME, organism-based; conditions: in vivo
[17] = AUC in Wistar rat at 3 mg/kg, iv or 10 mg/kg, po and measured up to 24 hrs by LC-MS/MS analysis; type: ADME, organism-based; parameters: dose 3 mg/kg, time < 24 hrs, route iv; conditions: in vivo
[18] = Cmax in Wistar rat at 3 mg/kg, iv or 10 mg/kg, po and measured up to 24 hrs by LC-MS/MS analysis; type: ADME, organism-based; parameters: dose 3 mg/kg, time < 24 hrs, route iv; conditions: in vivo
[19] = Tmax in Wistar rat at 3 mg/kg, iv or 10 mg/kg, po and measured up to 24 hrs by LC-MS/MS analysis; type: ADME, organism-based; conditions: in vivo
[20] = Half life in Wistar rat at 3 mg/kg, iv or 10 mg/kg, po and measured up to 24 hrs by LC-MS/MS analysis; type: ADME, organism-based; conditions: in vivo
[21] = Oral bioavailability in Wistar rat at 10 mg/kg or 3 mg/kg, iv and measured up to 24 hrs by LC-MS/MS analysis; type: ADME, organism-based; conditions: in vivo
[22] = Drug distribution in C57BL/6 mouse plasma 10 mg/kg, po and measured at 1 hrs post dose by LC-MS/MS analysis; type: ADME, organism-based
[23] = Drug distribution in C57BL/6 mouse plasma 10 mg/kg, po and measured at 2 hrs post dose by LC-MS/MS analysis; type: ADME, organism-based
[24] = Drug distribution in C57BL/6 mouse plasma 10 mg/kg, po and measured at 8 hrs post dose by LC-MS/MS analysis; type: ADME, organism-based
[25] = Drug distribution in C57BL/6 mouse adipose tissue 10 mg/kg, po and measured at 1 hrs post dose by LC-MS/MS analysis; type: ADME, organism-based; conditions: read-out: Ct
[26] = Drug distribution in C57BL/6 mouse adipose tissue 10 mg/kg, po and measured at 2 hrs post dose by LC-MS/MS analysis; type: ADME, organism-based; conditions: read-out: Ct
[27] = Drug distribution in C57BL/6 mouse adipose tissue 10 mg/kg, po and measured at 8 hrs post dose by LC-MS/MS analysis; type: ADME, organism-based; conditions: read-out: Ct
[28] = Drug distribution in C57BL/6 mouse liver 10 mg/kg, po and measured at 1 hrs post dose by LC-MS/MS analysis; type: ADME, organism-based; conditions: read-out: Ct
[29] = Drug distribution in C57BL/6 mouse liver 10 mg/kg, po and measured at 2 hrs post dose by LC-MS/MS analysis; type: ADME, organism-based; conditions: read-out: Ct
[30] = Drug distribution in C57BL/6 mouse liver 10 mg/kg, po and measured at 8 hrs post dose by LC-MS/MS analysis; type: ADME, organism-based; conditions: read-out: Ct
[31] = Drug distribution in C57BL/6 mouse skeletal muscle 10 mg/kg, po and measured at 1 hrs post dose by LC-MS/MS analysis; type: ADME, organism-based, Skeletal muscle tissue; conditions: read-out: Ct
[32] = Drug distribution in C57BL/6 mouse skeletal muscle 10 mg/kg, po and measured at 2 hrs post dose by LC-MS/MS analysis; type: ADME, organism-based, Skeletal muscle tissue; conditions: read-out: Ct
[33] = Drug distribution in C57BL/6 mouse skeletal muscle 10 mg/kg, po and measured at 8 hrs post dose by LC-MS/MS analysis; type: ADME, organism-based, Skeletal muscle tissue; conditions: read-out: Ct
[34] = Drug distribution in C57BL/6 mouse brain 10 mg/kg, po and measured at 1 hrs post dose by LC-MS/MS analysis; type: ADME, organism-based; conditions: read-out: Ct
[35] = Drug distribution in C57BL/6 mouse brain 10 mg/kg, po and measured at 2 hrs post dose by LC-MS/MS analysis; type: ADME, organism-based; conditions: read-out: Ct
CYP1A2 = molecular target: T2, CYP1A2 (Homo sapiens, UniProt P05177); assay: Inhibition of recombinant human CYP1A2 at 25 uM by fluorescence plate reader analysis; type: ADME
T2 sequence (P05177 whole entry): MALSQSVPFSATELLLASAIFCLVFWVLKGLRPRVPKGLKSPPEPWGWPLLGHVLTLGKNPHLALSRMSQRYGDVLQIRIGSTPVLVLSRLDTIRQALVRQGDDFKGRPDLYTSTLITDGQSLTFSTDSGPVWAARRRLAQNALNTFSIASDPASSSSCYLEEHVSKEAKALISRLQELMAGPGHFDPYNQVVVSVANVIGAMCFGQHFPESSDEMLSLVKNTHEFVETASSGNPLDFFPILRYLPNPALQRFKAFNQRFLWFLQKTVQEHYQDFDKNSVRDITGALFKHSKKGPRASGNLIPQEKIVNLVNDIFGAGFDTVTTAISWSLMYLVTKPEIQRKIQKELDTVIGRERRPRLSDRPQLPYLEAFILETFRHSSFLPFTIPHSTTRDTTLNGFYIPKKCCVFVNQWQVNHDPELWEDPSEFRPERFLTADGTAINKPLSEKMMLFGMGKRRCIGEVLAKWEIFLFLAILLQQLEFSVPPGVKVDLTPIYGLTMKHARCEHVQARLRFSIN

CYP3A4 = CYP3A4 (Homo sapiens, UniProt P08684); assay: Inhibition of recombinant human CYP3A4 at 25 uM by fluorescence plate reader analysis; type: ADME
CYP2D6 = CYP2D6 (Homo sapiens, UniProt P10635); assay: Inhibition of recombinant human CYP2D6 at 25 uM by fluorescence plate reader analysis; type: ADME
[36] = Solubility of compound in PBS at pH 2 incubated for 4 hrs under shaking condition by UV absorbance based analysis; type: physicochemical
[37] = Solubility of compound in PBS at pH 4 incubated for 4 hrs under shaking condition by UV absorbance based analysis; type: physicochemical
[38] = Solubility of compound in PBS at pH 7.4 incubated for 4 hrs under shaking condition by UV absorbance based analysis; type: physicochemical
[39] = Solubility of compound in PBS at pH 9 incubated for 4 hrs under shaking condition by UV absorbance based analysis; type: physicochemical

Sequence of CYP2D6 (P10635 whole entry): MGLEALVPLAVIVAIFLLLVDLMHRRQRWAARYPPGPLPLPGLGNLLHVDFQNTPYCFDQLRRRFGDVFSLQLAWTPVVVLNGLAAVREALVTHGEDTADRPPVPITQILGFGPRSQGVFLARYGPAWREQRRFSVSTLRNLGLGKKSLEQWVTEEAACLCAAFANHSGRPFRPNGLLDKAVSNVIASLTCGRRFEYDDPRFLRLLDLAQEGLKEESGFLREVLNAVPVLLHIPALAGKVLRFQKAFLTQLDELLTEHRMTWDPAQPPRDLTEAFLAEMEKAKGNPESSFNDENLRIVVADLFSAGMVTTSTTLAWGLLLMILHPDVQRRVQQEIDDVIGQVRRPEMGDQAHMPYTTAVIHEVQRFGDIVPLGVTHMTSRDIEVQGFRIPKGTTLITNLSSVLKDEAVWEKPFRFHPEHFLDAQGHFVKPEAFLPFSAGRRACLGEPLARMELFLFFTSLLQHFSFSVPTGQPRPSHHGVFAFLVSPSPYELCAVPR
Sequence of CYP3A4 (P08684 whole entry): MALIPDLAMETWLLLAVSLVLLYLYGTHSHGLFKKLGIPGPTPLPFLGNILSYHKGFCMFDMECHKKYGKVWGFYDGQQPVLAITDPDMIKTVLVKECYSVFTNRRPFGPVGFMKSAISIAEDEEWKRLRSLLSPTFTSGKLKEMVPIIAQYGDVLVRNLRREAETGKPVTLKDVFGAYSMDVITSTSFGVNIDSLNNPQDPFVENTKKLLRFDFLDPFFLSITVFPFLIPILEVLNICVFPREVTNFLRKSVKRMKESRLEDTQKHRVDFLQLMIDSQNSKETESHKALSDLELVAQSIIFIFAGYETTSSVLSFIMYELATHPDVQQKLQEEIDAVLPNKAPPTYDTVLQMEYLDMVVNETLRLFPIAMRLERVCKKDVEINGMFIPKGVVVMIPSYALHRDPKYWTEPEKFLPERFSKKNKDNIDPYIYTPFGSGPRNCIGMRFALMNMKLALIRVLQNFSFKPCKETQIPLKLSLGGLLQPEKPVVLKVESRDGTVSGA
Sequence of hERG (KCNH2) (Q12809 whole entry): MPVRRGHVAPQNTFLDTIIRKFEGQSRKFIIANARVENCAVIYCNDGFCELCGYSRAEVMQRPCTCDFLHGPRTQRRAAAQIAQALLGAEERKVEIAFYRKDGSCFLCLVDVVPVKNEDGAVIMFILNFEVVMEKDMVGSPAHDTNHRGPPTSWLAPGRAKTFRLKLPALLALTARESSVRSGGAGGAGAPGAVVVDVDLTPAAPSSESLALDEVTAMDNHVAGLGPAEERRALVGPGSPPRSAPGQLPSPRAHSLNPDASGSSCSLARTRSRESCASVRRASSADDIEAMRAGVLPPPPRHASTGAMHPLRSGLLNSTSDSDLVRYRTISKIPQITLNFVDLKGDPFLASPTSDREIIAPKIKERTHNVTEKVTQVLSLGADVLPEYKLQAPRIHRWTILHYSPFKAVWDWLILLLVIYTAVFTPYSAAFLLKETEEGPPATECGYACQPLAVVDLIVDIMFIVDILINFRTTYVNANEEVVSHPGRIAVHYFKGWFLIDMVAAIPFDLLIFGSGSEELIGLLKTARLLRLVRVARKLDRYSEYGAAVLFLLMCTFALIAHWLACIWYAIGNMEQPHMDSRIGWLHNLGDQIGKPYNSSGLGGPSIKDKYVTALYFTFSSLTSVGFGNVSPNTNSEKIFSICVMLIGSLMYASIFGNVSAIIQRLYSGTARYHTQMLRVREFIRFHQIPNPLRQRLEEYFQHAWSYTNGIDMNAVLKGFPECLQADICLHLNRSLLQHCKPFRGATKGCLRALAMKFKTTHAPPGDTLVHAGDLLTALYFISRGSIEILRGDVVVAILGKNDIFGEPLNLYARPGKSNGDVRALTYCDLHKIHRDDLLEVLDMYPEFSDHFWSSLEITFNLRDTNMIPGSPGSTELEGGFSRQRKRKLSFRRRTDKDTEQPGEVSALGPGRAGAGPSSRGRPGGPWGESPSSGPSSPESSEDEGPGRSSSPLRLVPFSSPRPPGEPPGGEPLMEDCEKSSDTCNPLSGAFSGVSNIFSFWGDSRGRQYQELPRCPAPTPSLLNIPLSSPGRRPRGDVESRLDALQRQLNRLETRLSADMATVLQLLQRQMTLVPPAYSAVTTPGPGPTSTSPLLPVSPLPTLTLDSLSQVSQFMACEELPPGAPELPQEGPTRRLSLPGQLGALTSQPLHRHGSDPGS

IC50 [1]: 16 nM
remaining at 0.5 h, 1 µM [2]: 71%
remaining at 0.5 h, 1 µM [3]: 88%
remaining at 0.5 h, 1 µM [4]: 100%
fraction unbound [5]: < 0.01
fraction unbound [6]: 0.03
clearance [7]: 21 mL/min/kg
Papp A→B at 1.5 h, 2.5 µM [8]: 4.7 ×10⁻⁶ cm/s
Vd [9]: 1.8 L/kg
AUC at 24 h [10]: 4.4 µM·h
Cmax [11]: 2600 nM
Tmax [12]: 0.5 h
half-life [13]: 2.1 h
bioavailability [14]: 53%
Vd [15]: 0.5 L/kg
clearance [16]: 1.2 mL/min/kg
AUC at 24 h [17]: 23.7 µM·h
Cmax [18]: 3800 nM
Tmax [19]: 1.3 h
half-life [20]: 6.4 h
bioavailability [21]: 9%
concentration at 1 h [22]: 2760 nM
concentration at 2 h [23]: 1860 nM
concentration at 8 h [24]: 80 nM
concentration at 1 h [25]: 740 nM
concentration at 2 h [26]: 470 nM
concentration at 8 h [27]: 110 nM
concentration at 1 h [28]: 74000 nM
concentration at 2 h [29]: 73000 nM
concentration at 8 h [30]: 28000 nM
concentration at 1 h [31]: 520 nM
concentration at 2 h [32]: 290 nM
concentration at 8 h [33]: 70 nM
concentration at 1 h [34]: 20 nM
concentration at 2 h [35]: 60 nM
Structure (SMILES): O=C(O)CC1CCC2(CC1)CCC(c1ccc(NC(=O)c3nnc(Nc4ccc(F)c(F)c4)o3)cn1)CC2 (stereo not drawn)
inhibition at 2 h, 30 µM (hERG (KCNH2)): 26%

inhibition at 25 µM (CYP1A2): 5%
inhibition at 25 µM (CYP3A4): 5%
inhibition at 25 µM (CYP2D6): 8%
solubility at 4 h [36]: 28 µM
solubility at 4 h [37]: 263 µM
solubility at 4 h [38]: 14 µM
solubility at 4 h [39]: 17 µM
Structure (SMILES): O=C([O-])CC1CCC2(CC1)CCC(c1ccc(NC(=O)c3nnc(Nc4ccc(F)c(F)c4)o3)cc1)CC2.[Na+] (stereo not drawn)
